This is an account of results in patent US11912668B2, “GCN2 and perk kinase inhibitors and methods of use thereof” (Deciphera Pharmaceuticals, LLC, priority 2020, dated 2024).

One test deals with GCN2 kinase (Homo sapiens (Human), UniProt Q9P2K8). Briefly: Biochemical assay for GCN2 (TR-FRET kinase activity assay). The following applies: 1 mM ATP, 3-hour incubation. On the procedure: Activity of GCN2 kinase was determined using a TR-FRET kinase activity assay (e.g. Riddle et al. Analytical Biochemistry (2006) 356(1) 108-116). Assays were conducted in 384-well plates (13 μL assay volume) using 2 nM GCN2 (Carna Biosciences), 130 nM GFP-EIf2α (Invitrogen), 0.2 mg/mL E. coli tRNA (sigma) and 1 mM ATP in kinase buffer (Invitrogen). Inhibition of GCN2 was measured by adding serial diluted test compound (final assay concentration of 0.5% DMSO) followed by a 3-hour incubation. Tb-peIF2α (pSer52) antibody (Invitrogen) (2 nM final assay concentration) in kinase buffer containing ETDA (final assay concentration of 20 mM) was added. After a 60 min incubation at room temperature, TR-FRET was monitored using an excitation wavelength of 340 nm and emission wavelengths of 490 nm and 520 nm. The emission ratio (520/490) at each compound concentration of was converted to percent inhibition using controls (i.e. reaction with no test compound and reaction with a known inhibitor) and IC50 values were calculated by fitting a four-parameter sigmoidal curve to the data using Prism (GraphPad software).
GCN2 kinase, sequence (Q9P2K8 whole entry): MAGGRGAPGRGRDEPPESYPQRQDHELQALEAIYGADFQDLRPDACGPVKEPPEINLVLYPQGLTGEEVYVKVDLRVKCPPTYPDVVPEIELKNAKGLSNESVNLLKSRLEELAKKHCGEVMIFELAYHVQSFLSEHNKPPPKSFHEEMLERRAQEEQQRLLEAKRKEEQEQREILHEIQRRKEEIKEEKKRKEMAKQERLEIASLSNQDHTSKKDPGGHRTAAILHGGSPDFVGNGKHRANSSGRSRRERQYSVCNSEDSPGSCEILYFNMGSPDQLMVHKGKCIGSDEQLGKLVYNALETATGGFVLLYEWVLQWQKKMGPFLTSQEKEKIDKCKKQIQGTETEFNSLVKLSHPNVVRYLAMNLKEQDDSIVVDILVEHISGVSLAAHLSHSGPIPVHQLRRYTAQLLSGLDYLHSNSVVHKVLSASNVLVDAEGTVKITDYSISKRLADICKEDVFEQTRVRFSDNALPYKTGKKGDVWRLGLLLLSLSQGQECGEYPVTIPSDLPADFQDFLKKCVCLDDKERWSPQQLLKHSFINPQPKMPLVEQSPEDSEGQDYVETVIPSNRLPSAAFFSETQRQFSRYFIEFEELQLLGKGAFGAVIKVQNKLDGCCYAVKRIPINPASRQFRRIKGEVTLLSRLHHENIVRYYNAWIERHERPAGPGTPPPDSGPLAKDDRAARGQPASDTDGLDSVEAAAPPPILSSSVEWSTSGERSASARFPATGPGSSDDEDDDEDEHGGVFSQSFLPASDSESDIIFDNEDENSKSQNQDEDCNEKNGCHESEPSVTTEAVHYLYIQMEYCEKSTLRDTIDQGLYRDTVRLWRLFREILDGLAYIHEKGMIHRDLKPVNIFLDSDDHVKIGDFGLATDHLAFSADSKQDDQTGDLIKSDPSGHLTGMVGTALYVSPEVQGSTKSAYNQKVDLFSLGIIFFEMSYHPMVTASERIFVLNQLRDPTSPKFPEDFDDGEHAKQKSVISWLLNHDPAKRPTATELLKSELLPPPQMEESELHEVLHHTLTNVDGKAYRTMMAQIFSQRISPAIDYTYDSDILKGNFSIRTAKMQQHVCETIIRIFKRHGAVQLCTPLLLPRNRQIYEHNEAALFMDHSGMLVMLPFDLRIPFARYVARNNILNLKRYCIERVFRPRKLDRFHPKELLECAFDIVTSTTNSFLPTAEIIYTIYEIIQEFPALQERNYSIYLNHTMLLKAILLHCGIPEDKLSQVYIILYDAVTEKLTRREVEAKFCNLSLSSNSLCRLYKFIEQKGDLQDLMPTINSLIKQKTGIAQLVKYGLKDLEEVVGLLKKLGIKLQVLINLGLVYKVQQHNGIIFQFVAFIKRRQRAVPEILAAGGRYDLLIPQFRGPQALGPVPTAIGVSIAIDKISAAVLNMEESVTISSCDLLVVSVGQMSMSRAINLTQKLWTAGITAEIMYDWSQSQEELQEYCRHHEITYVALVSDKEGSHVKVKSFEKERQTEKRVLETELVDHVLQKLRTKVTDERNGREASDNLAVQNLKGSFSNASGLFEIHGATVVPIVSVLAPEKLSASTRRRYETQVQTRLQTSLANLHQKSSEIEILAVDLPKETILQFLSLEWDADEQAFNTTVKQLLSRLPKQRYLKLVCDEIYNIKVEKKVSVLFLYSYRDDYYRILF
Background: In TR-FRET formats the signal depends on donor and acceptor labels being close together.

The target of the next test is PERK kinase (Homo sapiens (Human), UniProt Q9NZJ5). Put plainly: Biochemical assay for PERK (coupled pyruvate kinase/lactate dehydrogenase assay). The conditions noted are these: 1 mM ATP, rate from 2-3 h time frame. On the procedure: Activity of PERK kinase was determined spectroscopically using a coupled pyruvate kinase/lactate dehydrogenase assay that continuously monitors the ATP hydrolysis-dependent oxidation of NADH (e.g., Schindler et al. Science (2000) 289: 1938-1942). Assays were conducted in 384-well plates (100 μL final volume) using 10 nM PERK (from Beryllium), 0.25 mg/mL Myelin Basic Protein substrate, 1.5 units pyruvate kinase, 2.1 units lactate dehydrogenase, 1 mM phosphoenol pyruvate, 0.28 mM NADH and 1 mM ATP in assay buffer (100 mM Tris, pH 7.5, 15 mM MgCl2, 0.5 mM DTT, 0.004% (w/v) BSA, and 0.004% Triton X-100). Inhibition of PERK was measured by adding serial diluted test compound (final assay concentration of 1% DMSO). A decrease in absorption at 340 nm was monitored continuously for 6 hours at 30° C. on a multi-mode microplate reader (BioTek). The reaction rate was calculated using the 2-3 h time frame. The reaction rate at each concentration of compound was converted to percent inhibition using controls (i.e. reaction with no test compound and reaction with a known inhibitor) and IC50 values were calculated using software routines in Prism (GraphPad software).
PERK kinase, sequence (Q9NZJ5 other isoform, or with tags, fused parts or gaps): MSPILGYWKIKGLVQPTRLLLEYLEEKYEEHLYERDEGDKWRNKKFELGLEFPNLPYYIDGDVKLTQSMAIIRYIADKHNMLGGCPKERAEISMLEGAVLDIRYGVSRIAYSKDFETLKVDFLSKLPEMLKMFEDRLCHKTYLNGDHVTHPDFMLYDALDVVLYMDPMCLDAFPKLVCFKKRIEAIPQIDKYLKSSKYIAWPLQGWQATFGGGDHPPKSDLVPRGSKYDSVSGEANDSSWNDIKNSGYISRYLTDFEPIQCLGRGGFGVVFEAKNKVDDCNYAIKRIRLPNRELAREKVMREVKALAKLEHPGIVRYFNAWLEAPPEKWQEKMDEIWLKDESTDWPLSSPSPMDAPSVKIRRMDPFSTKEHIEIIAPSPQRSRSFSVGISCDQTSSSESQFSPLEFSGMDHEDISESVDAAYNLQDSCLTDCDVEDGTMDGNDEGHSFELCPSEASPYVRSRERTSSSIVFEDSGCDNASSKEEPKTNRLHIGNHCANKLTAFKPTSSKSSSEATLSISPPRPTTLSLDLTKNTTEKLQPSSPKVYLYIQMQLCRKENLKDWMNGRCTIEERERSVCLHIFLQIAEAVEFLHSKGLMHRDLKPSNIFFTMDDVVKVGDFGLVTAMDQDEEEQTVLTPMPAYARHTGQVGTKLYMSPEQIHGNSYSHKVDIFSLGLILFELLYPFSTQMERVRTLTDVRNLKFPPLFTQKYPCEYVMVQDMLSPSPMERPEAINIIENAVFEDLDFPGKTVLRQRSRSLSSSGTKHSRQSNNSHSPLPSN

Another test concerns CCRF-CEM leukemia cells. Briefly: CCRF-CEM ASNase cell proliferation assay, phenotypic assay for cellular inhibition of GCN2. Format: cell-based. The conditions noted are these: Homo sapiens; ASNase treated CCRF-CEM cells, 1 mU/mL ASNase, 72 h. As to the method: CCRF-CEM leukemia cells (catalog #CCL-116) were obtained from the American Type Culture Collect (ATTC, Manassas, VA). Cells were grown in RPMI-1640 medium supplemented with 10% heat-inactivated fetal bovine serum (Invitrogen, Carlsbad, CA) and 1% Penicillin/Streptomycin/L-Glutamine at 37° C., 5% CO2, and 95% humidity. Cells were expanded until reaching one million cells per mL at which time they are subcultured or harvested for assay use. Ten thousand cells per well in 200 μL RPMI-1640 supplemented with 10% heat-inactivated fetal bovine serum and 1% Penicillin/Streptomycin were dispensed into a 96-well black clear bottom plate. A serial dilution of test compound and 1 mU/mL ASNase was added in triplicate and plates were incubated for 72 h at 37° C., 5% CO2, and 95% humidity. At the end of the incubation, 40 μL of a […] solution of resazurin (Sigma, St. Louis, MO) in PBS was added to each well of the plate and plates were incubated for an additional 6 h at 37° C., 5% CO2, and 95% humidity. Plates were read on a Synergy2 or equivalent reader (Biotek, Winooski VT) using an excitation of 540 nm and an emission of 600 nm. Data was analyzed using GraphPad Prism software (GraphPad, San Diego, CA) to calculate IC50 values.

The test system of test [1] is phospho-GCN2 (Thr899) in HCT116 colorectal cancer cells. Briefly: HCT116 amino acid starved (-AA) phospho-GCN2 assay (Western blot). It counts as cell-based. The conditions noted are these: Homo sapiens, HCT-116, 4 h, read-out: HCT116-AA pGCN2 Western Blot. As to the method:
(§1) HCT116 colorectal cancer cells (catalog #CCL-247) were obtained from the American Type Culture Collect (ATTC, Manassas, VA). Briefly, cells were grown in RPMI 1640 supplemented with 10% heat inactivated fetal bovine serum (Invitrogen, Carlsbad, CA) and 1% Penicillin/Streptomycin/L-Glutamine at 37° C., 5% CO2, and 95% humidity. Cells were expanded until reaching 70-95% confluency at which point they were subcultured or harvested for assay use. Cells were seeded in 12-well culture plate at five hundred thousand cells per well in 1 mL complete growth medium and incubated overnight at 37° C., 5% CO2, and 95% humidity. The next day each well was replaced with 1 mL Earle's Balanced Salt Solution (EBSS, Invitrogen, Carlsbad, CA) supplemented with 10% Dialyzed Fetal Bovine Serum, 5.5 mM Glucose, 1% Penicillin/Streptomycin and 1% Vitamin solution (thermo #11120052). A serial dilution of test compound was dispensed into well. Plates were incubated for 4 h at 37° C., 5% CO2, and 95% humidity. At the end of the incubation, cells were washed with PBS supplemented with 1× Halt protease inhibitor, 1× Halt phosphatase inhibitor, 1× Sigma phosphatase inhibitor cocktail 2 and 1×EDTA and then lysed with M-PER Mammalian Protein Extraction Reagent supplemented with 3× of the inhibitor mix as described above. Cell lysates were sonicated with water bath sonicator (Qsonica, Newtown, CT) and supernatants were boiled with SDS buffer and reducing agent. Western blot was performed on each lysate to quantify phospho-GCN2 (Thr899), total GCN2, ATF4 and beta-Actin. Membranes were imaged with LI-COR Odyssey CLx Imaging System (LI-COR, Lincoln, NE). Data were analyzed using GraphPad Prism software (GraphPad, San Diego, CA) to calculate IC50 values.

Test [2] relates to ATF4 in HCT116 colorectal cancer cells. Briefly: HCT116 amino acid starved (-AA) ATF4 assay (Western blot). It counts as cell-based. The following applies: Homo sapiens, HCT-116, 4 h. As to the method:
as §1

Test [3] has as its system ATF4 in CCRF-CEM leukemia cells (PERK). Put plainly: CCRF-CEM TG ATF4 ELISA, phenotypic assay for cellular inhibition of PERK preactivated by thapsigargin. It counts as cell-based. The conditions noted are these: Homo sapiens; Thapsigargin (1 μM) stimulated CCRF-CEM cells. As to the method: CCRF-CEM leukemia cells (catalog #CCL-116) were obtained from the American Type Culture Collection (ATTC, Manassas, VA). Briefly, cells were grown in RPMI-1640 medium supplemented with 10% heat-inactivated fetal bovine serum (Invitrogen, Carlsbad, CA) and 1% Penicillin/Streptomycin/L-Glutamine at 37° C., 5% CO2, and 95% humidity. Cells were expanded until reaching one million cells per mL at which time they were subcultured or harvested for assay use. One million five hundred thousand cells per well in 1 mL complete growth medium were dispensed into 12-well plates and incubated overnight. A serial dilution of test compound was added and cells were incubated at 37° C., 5% CO2, and 95% for three hours, then 1 μM thapsigargin was added and cells were incubated for an additional hour at 37° C., 5% CO2, and 95%. Cells were lysed then ATF4 levels were measured using an ELISA assay (Proteintech, Rosemont, IL). Absorbance was measured at 450 nm and 544 nM using a Synergy2 or equivalent reader (Biotek, Winooski VT). Data was analyzed using PRISM software (Graphpad, San Diego, CA) to calculate IC50 values.
In general terms: ELISA stands for enzyme-linked immunosorbent assay.

As for `CNc1ncc2cc(-c3cccc(NS(=O)(=O)c4cc(Cl)cnc4OC)c3F)c(C)nc2n1` [Example 3, 5-chloro-N-(2-fluoro-3-(7-methyl-2-(methylamino)pyrido[2,3-d]pyrimidin-6-yl)phenyl)-2-methoxypyridine-3-sulfonamide], the IC50 (against GCN2 kinase; against PERK kinase; with CCRF-CEM leukemia cells; in test [1]; in test [2]) was at most 100 nM throughout.
For `CNc1cc2ncc(-c3cccc(NS(=O)(=O)c4cc(Cl)cc(CO)c4Cl)c3F)cc2cn1` [Example 4, 2,5-dichloro-N-(2-fluoro-3-(7-(methylamino)-1,6-naphthyridin-3-yl)phenyl)-3-(hydroxymethyl)benzenesulfonamide], the IC50 is at most 100 nM against GCN2 kinase, at most 100 nM on PERK kinase, 1000 to 10000 nM in the test with CCRF-CEM leukemia cells and at most 100 nM in test [3].
In the case of `CNc1ncc2cc(-c3cc(F)cc(NS(=O)(=O)c4cc(Cl)cnc4OC)c3)c(NC)nc2n1` [Example 11], the IC50 on GCN2 kinase is at most 100 nM; at PERK kinase, 100 to 500 nM; in the test with CCRF-CEM leukemia cells it was 100 to 500 nM; in test [1], at most 100 nM; in test [2], at most 100 nM; in test [3], 1000 to 10000 nM.
With `CNc1cc2nc(C)c(-c3cc(NS(=O)(=O)c4cc(Cl)cc(CO)c4Cl)c(F)cc3Br)cc2cn1` [Example 14], the IC50 against GCN2 kinase was at most 100 nM; on PERK kinase it was 100 to 500 nM; with CCRF-CEM leukemia cells, 1000 to 10000 nM; in test [1], 100 to 500 nM; in test [2], 500 to 1000 nM; in test [3], 1000 to 10000 nM.
On to `CNc1ncc2cc(-c3cccc(NS(=O)(=O)c4cc(Cl)cnc4OC)c3)c(NC)nc2n1` [Example 15], for which the IC50 was at most 100 nM against GCN2 kinase; 100 to 500 nM against PERK kinase; 100 to 500 nM with CCRF-CEM leukemia cells; at most 100 nM in test [1]; 100 to 500 nM in test [2].
For the compound `CNc1ncc2cc(-c3cc(NS(=O)(=O)c4cc(Cl)cnc4OC)c(F)cc3C)c(C)nc2n1` [Example 17], the IC50 lay in the range of 500 to 1000 nM against GCN2 kinase; 100 to 500 nM on PERK kinase; 1000 to 10000 nM in the test on CCRF-CEM leukemia cells; 100 to 500 nM in test [1]; 1000 to 10000 nM in test [2]; 1000 to 10000 nM in test [3].
As for `CNc1ncc2cc(-c3cc(F)cc(NS(=O)(=O)c4cc(Cl)cnc4OC)c3)c(C)nc2n1` [Example 65], the IC50 was 100 to 500 nM against PERK kinase; 100 to 500 nM with CCRF-CEM leukemia cells; at most 100 nM in test [1]; 100 to 500 nM in test [2]; 1000 to 10000 nM in test [3].
For the compound `CNc1ncc2cc(-c3cccc(NS(=O)(=O)c4cc(Cl)cnc4OC)c3F)c(OC)cc2n1` [Example 159], the IC50 was at most 100 nM against GCN2 kinase, at most 100 nM at PERK kinase, at most 100 nM in the test on CCRF-CEM leukemia cells and 500 to 1000 nM in test [3].
For the compound `CNc1cnc(OC)c(S(=O)(=O)Nc2cccc(-c3cc4cnc(NC)cc4nc3C)c2F)c1` [Example 162], the IC50 against GCN2 kinase was at most 100 nM; against PERK kinase, 100 to 500 nM; in the test with CCRF-CEM leukemia cells it was at most 100 nM.
As to `CNc1nc2nc(NC(C)=O)ncc2cc1-c1cc(F)cc(NS(=O)(=O)c2cc(Cl)cnc2OC)c1` [Example 164], the IC50 against GCN2 kinase was at most 100 nM; against PERK kinase it was 100 to 500 nM; with CCRF-CEM leukemia cells it was 100 to 500 nM; in test [3], 1000 to 10000 nM.
For the compound `COc1nc2nc(N)ncc2cc1-c1cccc(NS(=O)(=O)c2cc(Cl)cnc2OC)c1F` [Example 165], the IC50 against GCN2 kinase was at most 100 nM; at PERK kinase, at most 100 nM; in the test on CCRF-CEM leukemia cells it was at most 100 nM; in test [3], 1000 to 10000 nM.
Regarding `COc1cc2nc(N)ncc2cc1-c1cccc(NS(=O)(=O)c2cc(Cl)cc(CO)c2Cl)c1F` [Example 167], the IC50 (on GCN2 kinase; at PERK kinase; with CCRF-CEM leukemia cells; in test [3]) was at most 100 nM throughout.
`CNc1ncc2cc(-c3cccc(NS(=O)(=O)c4cc(OC)ccc4Cl)c3F)c(NC)nc2n1` [Example 168]: the IC50 against GCN2 kinase was at most 100 nM; on PERK kinase, at most 100 nM; in the test with CCRF-CEM leukemia cells it was 100 to 500 nM; in test [3], 1000 to 10000 nM.
In the case of `CNc1cc2nc(N)c(-c3cccc(NS(=O)(=O)c4cc(Cl)cc(CO)c4Cl)c3F)cc2cn1` [Example 171], the IC50 (in the test with CCRF-CEM leukemia cells; in test [3]) was at most 100 nM throughout.
`CNc1ncc2cc(-c3cccc(NS(=O)(=O)c4cc(Cl)cc(CO)c4F)c3F)c(NC)nc2n1` [Example 176]: the IC50 against GCN2 kinase is at most 100 nM; against PERK kinase, at most 100 nM; with CCRF-CEM leukemia cells it was at most 100 nM; in test [3], 1000 to 10000 nM.
Consider `CNc1ncc2cc(-c3cccc(NS(=O)(=O)c4cc(F)cc(CO)c4Cl)c3F)c(NC)nc2n1` [Example 177], for which the IC50 against GCN2 kinase is at most 100 nM; against PERK kinase it was 100 to 500 nM; with CCRF-CEM leukemia cells it was at most 100 nM; in test [3], 100 to 500 nM.
Take `CNc1ncc2cc(-c3cccc(NS(=O)(=O)c4cc(F)cc(CO)c4F)c3F)c(NC)nc2n1` [Example 178]: the IC50 was at most 100 nM at GCN2 kinase, 100 to 500 nM on PERK kinase, at most 100 nM in the test on CCRF-CEM leukemia cells and 1000 to 10000 nM in test [3].
